Reference: patent US9987307B2, “Tolerogenic dendritic cells, methods of producing the same, and uses thereof” (SOTIO A.S., priority 2014, dated 2018)
Entries after “also recorded” stand apart in the source; their conditions may differ.

Tests used:
[1] = tested on: tDCs; assay: ILT-3, PD-L1 and CD86 expression on restimulated tDCs in the presence of inhibitors (flow cytometry); format: cell-based, human; conditions: for CD86 expression in tDCs in the presence of inhibitor / ILT-3 and PD-L1 expression in tDCs in the presence of inhibitor: restimulation 24 h
Description: (§1) To induce maturation, DC were treated with vaccine grade monophosphoryl lipid A (MPLA) (2 μg/ml, Cayla-InvivoGen) on day 6 or on day 7. On day 7 or on day 8, DC were harvested, washed and functional assays were performed. Control DC (cDC) were cultured without tolerising factors. For restimulation assays, tolDC and cDC were extensively washed and recultured in complete RPMI 1640 medium (Gibco) in the absence of tolerising factors for 24-72 h, with or without lipopolysaccharide (LPS, 1 μg/ml, Sigma-Aldrich), poly I:C (25 μg/ml, Cayla-InvivoGen), CD40L (1000 ng/ml, Enzo) or a mixture of pro-inflammatory cytokines containing IL-1β (10 ng/ml), TNFα (10 ng/ml), IL-6 (10 ng/ml) and IFNγ (100 ng/ml) (all from R&D systems). Supernatant and cells were collected for further analysis. Signaling inhibitors were added 1 h before the start of experiments under the specified stimulation conditions. SB203580 (p38 MAPK inhibitor at 10 μM), SP600125 (JNK/SAPK inhibitor at 20 μM), PD98059 (ERK1/2 inhibitor at 20 μM), Bay 11-7082 (NF-κB inhibitor at 10 μM), Stattic (STAT3 inhibitor at 5 μM) and rapamycin (mTOR inhibitor at 100 nM) were obtained from Calbiochem and dissolved in DMSO.
Cells were stained with fluorochrome-conjugated mAbs for 30 min at 4° C. in PBS, washed and analysed on LSRFortessa cell analyzer (BD Biosciences). Appropriate isotype controls were included. Data were analyzed using FlowJo software (Tree Star). DCs were gated according to the FSC, SSC and CD11c+ parameters for analysis. Dead cells were excluded from the analysis based on DAPI staining. For intracellular cytokine staining, T cells were stimulated with phorbol-12-myristate-13-acetate (PMA) (50 ng/ml, Sigma-Aldrich) plus ionomycin (1 μg/ml, Sigma-Aldrich) for 4-16 hours in the presence of Brefeldin A (5 μg/ml, BioLegend) before cell analysing. After stimulation, cells were washed, incubated in Fixation/Permeabilization Buffer (eBiosciences) for 30 min at 4° C., then washed in Permeabilization Buffer (eBiosciences) and stained with appropriate mAb for 30 min at 4° C.
(§2) Immature DCs were obtained from buffy coats of healthy donors as previously described [Palova-Jelinkova L, Rozkova D, Pecharova B, Bartova J, Sediva A, Tlaskalova-Hogenova H, Spisek R, Tuckova L: Gliadin fragments induce phenotypic and functional maturation of human dendritic cells. J Immunol 2005; 175:7038-7045]. […] Medium and cytokines were replenished on day 3. On day 6, DCs were harvested and seeded in 96-well plates (Nunc) at 1×10^6 cells/ml. On day 7, immature DCs were activated with vacci grade MPLA (2 μg/ml, Cayla-InvivoGen) for 24 hrs. To induce tDCs, DCs were treated with Dex on day 3 (1 μM, Medochemie) and Dex and VitD2-paricalcitol (1.5 ng/ml, Zemplar, Abbott Laboratories) on day 6. Control DCs (cDCs) were cultured without tolerising factors. For restimulation assays, tDCs and cDCs were washed and recultured in complete RPMI medium (Gibco) containing 5% human AB serum (Invitrogen) in the absence of tolerising factors for 24 h, with or without LPS (1 μg/ml, Sigma-Aldrich), polyI:C (25 μg/ml, Cayla-InvivoGen), megaCD40L™ (1000 ng/ml, Enzo Life Sciences) or mixture of pro-inflammatory cytokines containing IL-1β, TNF-α, IL-6 (all 10 ng/ml) and IFN-γ (100 ng/ml) (all from R&D systems). Signaling inhibitors were added 1 h before the start of experiments under the specified stimulation conditions. SB203580 (p38 MAPK inhibitor at 10 μM), SP600125 (JNK/SAPK inhibitor at 20 μM), PD98059 (ERK1/2 inhibitor at 20 μM), Bay 11-7082 (NF-κB inhibitor at 10 μM), Stattic (STAT3 inhibitor at 5 μM) and rapamycin (mTOR inhibitor at 100 nM) were obtained from Calbiochem and dissolved in dimethyl sulfoxide. Supernatants and cells were collected for further analysis.
Cells (2×10^5/well) were stained with fluorochrome-conjugated mAbs for 30 min at 4° C. in PBS, washed and analysed on LSR Fortessa cell analyzer (BD Biosciences). Appropriate isotype controls were included. Data were analyzed using FlowJo software (Tree Star). […]

[2] = tested on: glycolysis; assay: Metabolic quantification: lactate in DC supernatants; format: cell-based, human; conditions: pretreatment before restimulation, 24 h
Description: lactate, glucose and lactate dehydrogenase measurements: Concentrations of lactate and glucose in DC culture supernatants were measured with Glycolysis Cell-based assay kit (Cayman Chemicals) and Glucose colorimetric assay kit (BioVision), respectively. When indicated, glycolysis was suppressed by treatment with 10 mM 2-deoxyglucose (Sigma) 1 h prior exposition of DCs cultured in Cell Gro into RPMI, LPS, CC, polyI:C or CD40L. LDH activity of the DCs extracts was measured with Lactate dehydrogenase activity assay kit (Sigma).

[3] = tested on: allogeneic T cells; assay: Allostimulatory assay (primary MLR, CFSE dilution); format: cell-based, human; conditions: compared to tDCs without inhibitor; day 6
Description: For primary MLR assays, allogeneic T cells (2×10^5) labelled with 5 μM carboxyfluorescein succinimidyl ester (CFSE, Invitrogen) were incubated with tolDC or cDC (2×10^4) in 96-well, round-bottom plates. T cell proliferation was determined by the sequential dilution of CFSE fluorescence of T cells, as detected by flow cytometry on day 6.
T cells were obtained from PBMC non-adherent fraction. tDCs or cDCs (2×104) were cultured with allogeneic T cells (2×105) in complete RPMI medium (Gibco) containing 5% human AB serum (Invitrogen). IL-2 (20 U/ml, PeproTech) was added on day 2, 5 and 7. For primary mixed lymphocyte reaction (MLR) assays, allogeneic T cells (2×105) labelled with 5 μM carboxyfluorescein succinimidyl ester (CFSE) (Invitrogen) were incubated with tDCs or cDCs (2×104). T cell proliferation was determined by the sequential dilution of CFSE fluorescence of T cells, as detected by flow cytometry on day 6. For detection of IFN-γ, IL-10 and IL-17A production by T cells, 2×10^4 tDCs or cDCs were cultured with 2×10^5 allogeneic T cells. Cytokine production was determined by intracellular staining by flow cytometry on day 6 (IFN-γ) and day 9 (IL-10). IL-17A production from cell culture supernatants was analyzed by ELISA on day 6.

[4] = tested on: tDCs; assay: IL-10 and IL-12 production of restimulated tDCs in the presence of inhibitors (ELISA); format: cell-based, human; conditions: restimulation with CC, LPS, polyI:C, CD40L, 24 h
Description: as §1
(§3) Cell supernatants were harvested after 24 hours of DC stimulation and frozen at −80° C. until analysis. IL-10, IL-12p70, IL-6 and TNFα concentrations were determined in cell culture supernatants of activated DCs using Luminex assay (MILLIPLEX™ Human Cytokine/Chemokine Kit, Merck Millipore) and ELISA assay (DuoSet ELISA Kit, R&D systems) according to manufacturer's instructions.
as §2
(§4) Cell supernatants were harvested after 24 h of DC stimulation and frozen at −80° C. until analysis. IL-10, IL-12p70, TNF-α and TGF-β concentrations were determined using Luminex assay (MILLIPLEX™ Human Cytokine/Chemokine Kit, Merck Millipore) and ELISA assay (DuoSet ELISA Kit, R&D systems) according to the manufacturer's instructions. Cell supernatants were acidified before measuring TGF-β levels according to the manufacturer's instructions.
lactate, glucose and lactate dehydrogenase measurements: Concentrations of lactate and glucose in DC culture supernatants were measured with Glycolysis Cell-based assay kit (Cayman Chemicals) and Glucose colorimetric assay kit (BioVision), respectively. […]

[5] = tested on: cDCs; assay: IL-10 and IL-12 production of restimulated cDCs in the presence of inhibitors (ELISA); format: cell-based, human; conditions: for IL-12 production in cDCs in the presence of inhibitor: after LPS and CC triggering
Description: as §1, §3
Immature DCs were obtained from buffy coats of healthy donors as previously described [Palova-Jelinkova L, Rozkova D, Pecharova B, Bartova J, Sediva A, Tlaskalova-Hogenova H, Spisek R, Tuckova L: Gliadin fragments induce phenotypic and functional maturation of human dendritic cells. J Immunol 2005; 175:7038-7045]. […] Medium and cytokines were replenished on day 3. On day 6, DCs were harvested and seeded in 96-well plates (Nunc) at 1×10^6 cells/ml. On day 7, immature DCs were activated with vacci grade MPLA (2 μg/ml, Cayla-InvivoGen) for 24 hrs. To induce tDCs, DCs were treated with Dex on day 3 (1 μM, Medochemie) and Dex and VitD2-paricalcitol (1.5 ng/ml, Zemplar, Abbott Laboratories) on day 6. Control DCs (cDCs) were cultured without tolerising factors. […]
as §4, with “Cell supernatants were acidified before measuring TGF-β levels according to the manufacturer's instructions.” left out

[6] = tested on: DCs
Description: Peripheral blood mononuclear cells (PBMC) from whole blood of patients were isolated using Ficoll-Paque (GE Healthcare) gradient centrifugation and monocytes were separated by allowing 2 h of cell adhesion in 75-cm2 culture flasks (Nunc). Then, non-adherent cells were washed out and frozen. Dendritic cells (DCs) were generated from monocytes in CellGro medium (CellGenix) containing penicillin and streptomycin (100 U/ml and 100 μg/ml, respectively; Gibco) in the presence of IL-4 (248 IU/ml, CellGenix) and GM-CSF (500 IU/ml, Gentaur) for 6 days. Fresh medium with cytokines was added on day 3. Tolerogenic dendritic cells (tolDCs) were induced by adding Dexamethasone on day 3 (1 μM, Medochemie) and Dexamethasone (1 μM) and vitamin D2 (Zemplar; 1.5 ng/ml, Abbott Laboratories) on day 6. Control DCs (cDCs) were generated without tolerogenic factors. On day 6, tolDCs and cDCs were harvested and seeded into 96-well plates (both 1×106 DCs/ml). […]
Cells were stained with mAb for 30 min in PBS at 4° C., washed and analyzed by LSR Fortessa cell analyzer (BD Biosciences). Data were analyzed using FlowJo software (Tree Star). […] DC viability was assessed with Annexin V-PE (Exbio) plus DAPI (Invitrogen) staining. […]

Row | Structure (SMILES) | CD86 expression in tDCs in the presence of inhibitor [1] | ILT-3 and PD-L1 expression in tDCs in the presence of inhibitor [1] | lactate generation in Dex/VitD tDCs in the presence of inhibitor [2] | ability of inhibitor-pretreated tDCs to stimulate allogeneic T cell proliferation [3] | IL-10 production in tDCs in the presence of inhibitor [4] | IL-12 production in tDCs in the presence of inhibitor [4] | IL-12 production in cDCs in the presence of inhibitor [5] | viability of DCs [6] | PD-L1 expression in the presence of inhibitor ([1]; after LPS stimulation) | IL-10 production in cDCs in the presence of inhibitor ([5]; after LPS restimulation)
1 | O=CC[C@@H](O)[C@H](O)[C@H](O)CO [2-DG, 2-deoxyglucose] | remained unaffected | failed to up-regulate ILT-3 and PD-L1 molecules | significantly prevented lactate generation | increased partially | markedly decreased IL-10 production | remained unaffected | – | – | – | –
2 | C[S+]([O-])c1ccc(-c2nc(-c3ccncc3)c(-c3ccc(F)cc3)[nH]2)cc1 (centres unmarked) [SB203580] | – | down-regulated ILT-3 and PD-L1 expression | – | – | significantly dependent | did not changed IL-12 production; also recorded: did not affect IL-12 production | markedly down-regulated IL-12 production | – | – | –
3 | C[C@@H]1C[C@H]2[C@@H]3CCC4=CC(=O)C=C[C@]4(C)[C@@]3(F)[C@@H](O)C[C@]2(C)[C@@]1(O)C(=O)CO [Dex, Dexamethasone] | – | – | – | – | – | – | – | did not affect the viability of DCs | – | –
4 | Cc1ccc(S(=O)(=O)/C=C/C#N)cc1 [Bay 11-7082] | – | – | – | – | significantly dependent; also recorded: abrogated IL-10 production | did not changed IL-12 production; also recorded: did not affect IL-12 production | markedly down-regulated IL-12 production | – | – | –
5 | C[C@H](/C=C/[C@H](C)C(C)(C)O)[C@H]1CC[C@H]2/C(=C/C=C3C[C@@H](O)C[C@H](O)C3)CCC[C@]12C [VitD2, 19-nor-1,25-dihydroxyvitamin D2] | – | – | – | – | – | – | – | did not affect the viability of DCs | – | –
6 | COc1cccc(-c2cc(=O)c3ccccc3o2)c1N [PD98059] | significantly up-regulated CD86 expression | – | – | increased the ability | significantly dependent | – | – | – | down-regulated PD-L1 expression | –
7 | O=[N+]([O-])c1ccc2c(c1)S(=O)(=O)C=C2 [Stattic] | significantly increased CD86 expression | markedly reduced expression | – | partial restoration | reduced IL-10 production | unaffected | unaffected | – | – | down-regulated IL-10 production
